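Values below derive from 48-hour exposures of cells grown in 96-well plates, with endpoints linearly interpolated between the two concentrations bracketing the appropriate inhibition level. GI50 = concentration required for 50% inhibition of growth. TGI: concentration producing complete growth inhibition.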
Key:
Experiment in all cases: NCI tumour cell line growth inhibition, 48 h
786-0 renal = system: 786-0 renal
A498 renal = system: A498 renal
A549 NSCLC = system: A549 NSCLC
BT-549 breast = system: BT-549 breast
CAKI-1 renal = system: CAKI-1 renal
CCRF-CEM leukemia = system: CCRF-CEM leukemia
COLO 205 colon = system: COLO 205 colon
DU-145 prostate = system: DU-145 prostate
EKVX NSCLC = system: EKVX NSCLC
HCC-2998 colon = system: HCC-2998 colon
HCT-116 colon = system: HCT-116 colon
HCT-15 colon = system: HCT-15 colon
HL-60(TB) leukemia = system: HL-60(TB) leukemia
HOP-62 NSCLC = system: HOP-62 NSCLC
HOP-92 NSCLC = system: HOP-92 NSCLC
HS 578T breast = system: HS 578T breast
HT29 colon = system: HT29 colon
IGROV1 ovarian = system: IGROV1 ovarian
K-562 leukemia = system: K-562 leukemia
KM12 colon = system: KM12 colon
LOX IMVI melanoma = system: LOX IMVI melanoma
M14 melanoma = system: M14 melanoma
MALME-3M melanoma = system: MALME-3M melanoma
MCF7 breast = system: MCF7 breast
MDA-MB-231 breast = system: MDA-MB-231 breast
MDA-MB-435 = system: MDA-MB-435
MOLT-4 leukemia = system: MOLT-4 leukemia
NCI-H226 lung = system: NCI-H226 lung
NCI-H23 lung = system: NCI-H23 lung
NCI-H460 lung = system: NCI-H460 lung
NCI-H522 lung = system: NCI-H522 lung
NCI/ADR-RES ovarian = system: NCI/ADR-RES ovarian
OVCAR-4 ovarian = system: OVCAR-4 ovarian
OVCAR-5 ovarian = system: OVCAR-5 ovarian
OVCAR-8 ovarian = system: OVCAR-8 ovarian
PC-3 prostate = system: PC-3 prostate
RPMI-8226 leukemia = system: RPMI-8226 leukemia
RXF 393 renal = system: RXF 393 renal
SF-268 CNS = system: SF-268 CNS
SF-295 CNS = system: SF-295 CNS
SF-539 CNS = system: SF-539 CNS
SK-MEL-2 melanoma = system: SK-MEL-2 melanoma
SK-MEL-28 melanoma = system: SK-MEL-28 melanoma
SK-MEL-5 melanoma = system: SK-MEL-5 melanoma
SK-OV-3 ovarian = system: SK-OV-3 ovarian
SN12C renal = system: SN12C renal
SNB-19 CNS = system: SNB-19 CNS
SNB-75 CNS = system: SNB-75 CNS
SR leukemia = system: SR leukemia
SW-620 colon = system: SW-620 colon
T-47D breast = system: T-47D breast
TK-10 renal = system: TK-10 renal
U251 CNS = system: U251 CNS
UACC-257 melanoma = system: UACC-257 melanoma
UACC-62 melanoma = system: UACC-62 melanoma

Work on `COc1ccc(-c2nnc(SCc3ccc(O)c4ncccc34)n2-c2ccccc2)cc1` yielded a GI50 (786-0 renal) of 891 nM, a TGI (786-0 renal) of 9810 nM and a GI50 (A498 renal) of 2230 nM. The TGI (A498 renal) was 12500 nM, the GI50 (A549 NSCLC) was 986 nM and the TGI (A549 NSCLC) was greater than 60000 nM. It also gave a GI50 (BT-549 breast) of 572 nM, a TGI (BT-549 breast) of 17000 nM and a GI50 (CAKI-1 renal) of 637 nM. The TGI (CAKI-1 renal) was 4290 nM, the GI50 (CCRF-CEM leukemia) was 424 nM and the TGI (CCRF-CEM leukemia) was greater than 100000 nM. The GI50 (COLO 205 colon) was 6710 nM, the TGI (COLO 205 colon) was greater than 100000 nM and the GI50 (DU-145 prostate) was 637 nM. The TGI (DU-145 prostate) was greater than 53500 nM, the GI50 (EKVX NSCLC) was 1050 nM and the TGI (EKVX NSCLC) was 10300 nM. For the same molecule, the GI50 (HCC-2998 colon) was 1190 nM, the TGI (HCC-2998 colon) was greater than 100000 nM and the GI50 (HCT-116 colon) was 361 nM. For the same molecule, the TGI (HCT-116 colon) was 5400 nM, the GI50 (HCT-15 colon) was 328 nM and the TGI (HCT-15 colon) was greater than 100000 nM. It also gave a GI50 (HL-60(TB) leukemia) of 397 nM, a TGI (HL-60(TB) leukemia) of 3410 nM and a GI50 (HOP-62 NSCLC) of 1000 nM. For the same molecule, the TGI (HOP-62 NSCLC) was 16700 nM, the GI50 (HOP-92 NSCLC) was 231 nM and the TGI (HOP-92 NSCLC) was 818 nM. For the same molecule, the GI50 (HS 578T breast) was 491 nM, the TGI (HS 578T breast) was 10000 nM and the GI50 (HT29 colon) was 4900 nM. The TGI (HT29 colon) was greater than 100000 nM, the GI50 (IGROV1 ovarian) was 892 nM and the TGI (IGROV1 ovarian) was 25000 nM. The GI50 (K-562 leukemia) was 370 nM, the TGI (K-562 leukemia) was greater than 100000 nM and the GI50 (KM12 colon) was 619 nM. It also gave a TGI (KM12 colon) greater than 89000 nM, a GI50 (LOX IMVI melanoma) of 478 nM and a TGI (LOX IMVI melanoma) of 2620 nM. For the same molecule, the GI50 (M14 melanoma) was 451 nM, the TGI (M14 melanoma) was 2500 nM and the GI50 (MALME-3M melanoma) was 968 nM. For the same molecule, the TGI (MALME-3M melanoma) was 5210 nM, the GI50 (MCF7 breast) was 395 nM and the TGI (MCF7 breast) was greater than 100000 nM. It also gave a GI50 (MDA-MB-231 breast) of 922 nM, a TGI (MDA-MB-231 breast) of 26700 nM and a GI50 (MDA-MB-435) of 468 nM. It also gave a TGI (MDA-MB-435) greater than 100000 nM, a GI50 (MOLT-4 leukemia) of 508 nM and a TGI (MOLT-4 leukemia) greater than 100000 nM. For the same molecule, the GI50 (NCI-H226 lung) was 2460 nM, the TGI (NCI-H226 lung) was 98000 nM and the GI50 (NCI-H23 lung) was 661 nM. It also gave a TGI (NCI-H23 lung) of 30400 nM, a GI50 (NCI-H460 lung) of 385 nM and a TGI (NCI-H460 lung) of 3310 nM. The GI50 (NCI-H522 lung) was 479 nM, the TGI (NCI-H522 lung) was 11100 nM and the GI50 (NCI/ADR-RES ovarian) was 290 nM. It also gave a TGI (NCI/ADR-RES ovarian) of 5700 nM, a GI50 (OVCAR-4 ovarian) of 739 nM and a TGI (OVCAR-4 ovarian) greater than 100000 nM. It also gave a GI50 (OVCAR-5 ovarian) of 3960 nM, a TGI (OVCAR-5 ovarian) greater than 100000 nM and a GI50 (OVCAR-8 ovarian) of 447 nM. The TGI (OVCAR-8 ovarian) was 96900 nM, the GI50 (PC-3 prostate) was 526 nM and the TGI (PC-3 prostate) was 28300 nM. For the same molecule, the GI50 (RPMI-8226 leukemia) was 493 nM, the TGI (RPMI-8226 leukemia) was greater than 100000 nM and the GI50 (RXF 393 renal) was 915 nM. For the same molecule, the TGI (RXF 393 renal) was 11100 nM, the GI50 (SF-268 CNS) was 605 nM and the TGI (SF-268 CNS) was 56600 nM. For the same molecule, the GI50 (SF-295 CNS) was 449 nM, the TGI (SF-295 CNS) was 6840 nM and the GI50 (SF-539 CNS) was 605 nM. It also gave a TGI (SF-539 CNS) of 5040 nM, a GI50 (SK-MEL-2 melanoma) of 1160 nM and a TGI (SK-MEL-2 melanoma) of 6710 nM. For the same molecule, the GI50 (SK-MEL-28 melanoma) was 726 nM, the TGI (SK-MEL-28 melanoma) was 31300 nM and the GI50 (SK-MEL-5 melanoma) was 720 nM. It also gave a TGI (SK-MEL-5 melanoma) of 3560 nM, a GI50 (SK-OV-3 ovarian) of 745 nM and a TGI (SK-OV-3 ovarian) of 9230 nM. The GI50 (SN12C renal) was 468 nM, the TGI (SN12C renal) was greater than 100000 nM and the GI50 (SNB-19 CNS) was 553 nM. It also gave a TGI (SNB-19 CNS) greater than 40900 nM, a GI50 (SNB-75 CNS) of 951 nM and a TGI (SNB-75 CNS) of 6130 nM. For the same molecule, the GI50 (SR leukemia) was 371 nM, the TGI (SR leukemia) was greater than 100000 nM and the GI50 (SW-620 colon) was 438 nM. The TGI (SW-620 colon) was greater than 100000 nM, the GI50 (T-47D breast) was 929 nM and the TGI (T-47D breast) was 4200 nM. For the same molecule, the GI50 (TK-10 renal) was 870 nM, the TGI (TK-10 renal) was 7510 nM and the GI50 (U251 CNS) was 389 nM. The TGI (U251 CNS) was 13800 nM, the GI50 (UACC-257 melanoma) was 1020 nM and the TGI (UACC-257 melanoma) was 10700 nM. It also gave a GI50 (UACC-62 melanoma) of 1310 nM and a TGI (UACC-62 melanoma) of 4980 nM.
